Experimental data reported in publication PMC9604400, “Synthesis, Anticancer and Antitubercular Properties of New Chalcones and Their Nitrogen-Containing Five-Membered Heterocyclic Hybrids Bearing Sulfonamide Moiety” (International Journal of Molecular Sciences, 2022).
Converted amounts (≈) assume the structure as drawn.

Assays:
renal cancer cell lines = assay: NCI-60 screen (SRB), renal cancer panel; type: cell-based; settings: Homo sapiens, single dose 10 μM, read-out: GI (growth inhibition), range over panel
[1] = tested on: Mycobacterium bovis BCG (ATCC 35734); assay: microbe, parasite or virus in culture; type: cell-based; settings: Mycobacterium tuberculosis variant bovis BCG, read-out: MIC Against M. bovis BCG
[2] = tested on: Mycobacterium tuberculosis H37Rv (ATCC 27294); assay: microbe, parasite or virus in culture; type: cell-based; settings: Mycobacterium tuberculosis; agar dilution SPOTi; read-out: MIC Against M. tuberculosis H37Rv
[3] = Cytotoxicity on Vero cell line (MTT); type: cell-based, African green monkey; settings: African green monkey, Vero cells (African green monkey kidney, ATCC CCL-81); MTT, 24 h
Vero cell line = assay: Cytotoxicity on Vero cell line (MTT); type: cell-based, African green monkey; settings: Vero IC50 / MIC M. tuberculosis H37Rv
MOLT-4 = assay: NCI-60 screen (SRB), leukemia; settings: Homo sapiens; for IC50: MOLT-4; for CC50: MOLT-4, read-out: LC50
M14 = assay: NCI-60 screen (SRB), melanoma; settings: Homo sapiens; for IC50: M14; for CC50: M14, read-out: LC50
SK-MEL-5 = assay: NCI-60 screen (SRB), melanoma; settings: Homo sapiens; for IC50: SK-MEL-5; for CC50: SK-MEL-5, read-out: LC50
UACC-257 = assay: NCI-60 screen (SRB), melanoma; settings: Homo sapiens; for IC50: UACC-257; for CC50: UACC-257, read-out: LC50
SF-268 = assay: NCI-60 screen (SRB), CNS cancer; settings: Homo sapiens; for IC50: SF-268; for CC50: SF-268, read-out: LC50
CAKI-1 = assay: NCI-60 screen (SRB), renal cancer; settings: Homo sapiens; for IC50: CAKI-1; for CC50: CAKI-1, read-out: LC50
BT-549 = assay: NCI-60 screen (SRB), breast cancer; settings: Homo sapiens; for IC50: BT-549; for CC50: BT-549, read-out: LC50
OVCAR-3 = assay: NCI-60 screen (SRB), ovarian cancer; settings: Homo sapiens; for IC50: OVCAR-3; for CC50: OVCAR-3, read-out: LC50
HOP-62 = assay: NCI-60 screen (SRB), non-small cell lung cancer; settings: Homo sapiens; for IC50: HOP-62; for CC50: HOP-62, read-out: LC50
NCI-H226 = assay: NCI-60 screen (SRB), non-small cell lung cancer; settings: for IC50 / CC50: Homo sapiens; for IC50: NCI-H226; for CC50: NCI-H226, read-out: LC50
NCI-H522 = assay: NCI-60 screen (SRB), non-small cell lung cancer; settings: Homo sapiens; for IC50: NCI-H522; for CC50: NCI-H522, read-out: LC50

SMILES	IC50 (MOLT-4) [µM]	CC50 (MOLT-4) [µM]	IC50 (M14) [µM]	CC50 (M14) [µM]	IC50 (SK-MEL-5) [µM]	CC50 (SK-MEL-5) [µM]	IC50 (UACC-257) [µM]	CC50 (UACC-257) [µM]	IC50 (SF-268) [µM]	CC50 (SF-268) [µM]	IC50 (CAKI-1) [µM]	CC50 (CAKI-1) [µM]	IC50 (BT-549) [µM]	CC50 (BT-549) [µM]	IC50 (OVCAR-3) [µM]	CC50 (OVCAR-3) [µM]	IC50 (HOP-62) [µM]	CC50 (HOP-62) [µM]	IC50 (NCI-H226) [µM]	CC50 (NCI-H226) [µM]	other results
COc1cc(OC)c(S(N)(=O)=O)cc1C(=O)C=Cc1ccccc1 [Compound 17a, 5-Cinnamoyl-2,4-dimethoxybenzenesulfonamide]	10.1	> 100	7.51	60.5	17.6	59.7	9.96	47.8	5.88	62.7	1.86	39.5	2.65	40.6	2.71	38.3	9.51	51.9	10	69.2	inhibition at 10 µM (renal cancer cell lines): 66.2 to 100%; MIC [1]: > 29 µM; MIC [2]: 29 µM (≈ 10.1 µg/mL); IC50 at 24 h [3]: 1.06 ± 1.21 µM; Selectivity Index (SI) (SI = IC50/MIC) (Vero cell line): 0.04; IC50 (NCI-H522): 6.56 µM; CC50 (NCI-H522): 49.7 µM
COc1cc(OC)c(S(N)(=O)=O)cc1C(=O)/C=C/c1ccc(Cl)cc1 [Compound 17b, (E)-5-(3-(4-Chlorophenyl)acryloyl)-2,4-dimethoxybenzenesulfonamide]	2.83	> 100	1.47	6.7	4.93	43	5.46	71.6	3.75	> 100	1.89	32.9	2.73	5.97	3.51	66.8	2.5	25.9	2.56	> 100	inhibition at 10 µM (renal cancer cell lines): 78.5 to 100%; lethality (NCI-H226; NCI-H226, single dose 10 μM): 25.96%; IC50 (NCI-H522): 1.63 µM; CC50 (NCI-H522): 7.14 µM
COc1cc(OC)c(S(N)(=O)=O)cc1C(=O)/C=C/c1ccc(C)cc1 [Compound 17c, (E)-2,4-Dimethoxy-5-(3-(p-tolyl)acryloyl)benzenesulfonamide]	3.07	> 100	3.25	56	7.81	49.4	3.86	41.9	3.2	> 100	2.42	35.2	2.18	31.6	3.05	> 100	2.9	29.5	4.14	90.8	IC50 (NCI-H522): 2.48 µM; CC50 (NCI-H522): 32.5 µM
COc1cc(OC)c(S(=O)(=O)N(CCCl)CCCl)cc1C(=O)/C=C/c1cc(OC)c(OC)c(OC)c1 [Compound 18e, (E)-N,N-bis(2-Chloroethyl)-2,4-dimethoxy-5-(3-(3,4,5-trimethoxyphenyl)acryloyl)benzenesulfonamide]	2.04	> 100	5.45	> 100	3.64	7.19	3.89	9.14	7.7	> 100	> 100	> 100	2.92	6.24	6.62	> 100	3.77	> 100	2.61	> 100	IC50 (NCI-H522): 1.66 µM; CC50 (NCI-H522): 8.59 µM
